70 molecules from the OPERA property sets (Mansouri et al. 2018) can be followed below.

≈ marks a conversion by molar mass, not a printed value. Where a SMILES comes first, the peptide text is derived from it.

The conditions of the first data set: 20 °C.
In general, solubility refers to the dissolved amount per volume that the medium holds. Low values mean little dissolved substance, high ones much dissolved substance. `O=C1C=Cc2ccccc2C1=NO`: the solubility came out at 1.16 mM (≈ 200 µg/mL).

With `O=c1cc[nH]cn1`, the solubility came to 3850 mM (≈ 370000 µg/mL).

Molecule `CC=C(CCCC)C(N)=O` showed a solubility of 42.5 mM (≈ 6000 µg/mL).

The molecule `O=C(O)C(Cl)=C(Br)Br` came in with a solubility of 205 mM (≈ 54300 µg/mL).

For `Cc1nc2c(=O)[nH]c(=O)n(C)c2nc1C`, the solubility came out at 7.71 mM (≈ 1590 µg/mL).

As to `CC(O)(CCl)CCl`, the solubility is 657 mM (≈ 94000 µg/mL).

Consider `CC(C)(C)S(=O)(=O)C(C)(C)C`, for which the solubility came out at 60.6 mM (≈ 10800 µg/mL).

In turn, `Cc1nc(C)c(C(=O)O)cc1C(=O)O` came in with a solubility of 1.55 mM (≈ 303 µg/mL).

For `N[C@@H](C(=O)O)[C@@H](O)[C@H](O)[C@H](O)CO`, the solubility came out at 138 mM (≈ 27000 µg/mL).

In turn, `Nc1nc(N)nc(Cl)n1` registered a solubility of 4.12 mM (≈ 600 µg/mL).

For the molecule `CCOC(C)CCO` (stereo not given), the solubility was determined as 423 mM (≈ 50000 µg/mL).

The data set is the same for the next values; noted with them: 21 °C.
Molecule `CCCCOc1cc(C(=O)NCCN(CC)CC)c2ccccc2n1` displayed a solubility of 0.122 mM (≈ 42 µg/mL).

The data set is the same for the next values; noted with them: 22 °C.
`COc1cc2nccnc2c(N)c1OC` showed a solubility of 19.5 mM (≈ 4000 µg/mL).

With `CC(=O)OCCS`, the solubility is 31.6 mM (≈ 3800 µg/mL).

The data set is the same for the next values; noted with them: 23 °C.
`CC(C)C(=O)Oc1ccc([N+](=O)[O-])cc1`: the solubility came out at 0.11 mM (≈ 23 µg/mL).

The same data set, now with this note: 24 °C.
The molecule `O=Cc1cccc(C(=O)O)c1O` gave a solubility of 3.61 mM (≈ 600 µg/mL).

`O=NC1=C(NO)CCC1` came in with a solubility of 10.1 mM (≈ 1300 µg/mL).

Staying with this data set, now noted: 25 °C.
`CCNCNC(=O)c1ccccc1` returned a solubility of 842 mM (≈ 150000 µg/mL).

`CCCCCCCCCNC(=O)c1cccnc1`: the solubility amounted to 0.725 mM (≈ 180 µg/mL).

The molecule `C[Si](C)(C)CCCN` displayed a solubility of 11.2 mM (≈ 1470 µg/mL).

`O=C(CCl)NC(=O)CCl` came in with a solubility of 5.88 mM (≈ 1000 µg/mL).

Consider `C=CCOC(=O)C(C)OC(=O)C(C)O` (stereo not given), for which the solubility worked out at 208 mM (≈ 42000 µg/mL).

`CC(=O)Nc1ccc(C)cc1` returned a solubility of 8.04 mM (≈ 1200 µg/mL).

Consider `CCCOCCC(=O)OC`, for which the solubility worked out at 233 mM (≈ 34000 µg/mL).

`Cc1cccc(CO)c1` registered a solubility of 409 mM (≈ 50000 µg/mL).

In turn, `O=C1C(=O)c2ccccc2-c2ccccc21` gave a solubility of 0.036 mM (≈ 7.5 µg/mL).

In turn, `C#CC#CC=C=CCCO` displayed a solubility of 12.9 mM (≈ 1700 µg/mL).

In the case of `CCC(CC)(CC(=O)O)C(=O)O`, the solubility was 160 mM (≈ 27900 µg/mL).

With `CCCC(=O)NCCNC(=O)CCC`, the solubility worked out at 239 mM (≈ 47800 µg/mL).

For the molecule `CC(CCC(=O)O)NC(=O)c1ccccc1` (stereo not given), the solubility turned out to be 20.3 mM (≈ 4500 µg/mL).

Molecule `CC1OC(=O)c2cc(N)ccc21` (stereo not given) returned a solubility of 16.3 mM (≈ 2650 µg/mL).

As to `CCCCCCCCCCCCCCNC(=O)C(C)O` (stereo not given), the solubility is 0.105 mM (≈ 30 µg/mL).

`CCOC(=O)N1CCN(C(=O)OCC)CC1` came in with a solubility of 187 mM (≈ 43000 µg/mL).

In turn, `CC(C)C1OCC2(CO1)COC(C(C)C)OC2` (stereo not given) registered a solubility of 0.769 mM (≈ 188 µg/mL).

For the molecule `Cc1ccc(S(=O)(=O)N(Cl)Cl)cc1`, the solubility is 0.342 mM (≈ 82.1 µg/mL).

Consider `Cc1cc(C)nc(N)n1`, for which the solubility was found to be 325 mM (≈ 40000 µg/mL).

Consider `CCOc1ccc(C(=O)O)c2ccccc12`, for which the solubility is 0.0772 mM (≈ 16.7 µg/mL).

`CC(C)C[C@H](N)C(=O)N[C@@H](CCC(=O)O)C(=O)O` (H-Leu-Glu-OH) registered a solubility of 127 mM (≈ 33000 µg/mL).

The molecule `CC(=O)Oc1ccccc1/C=C/C(=O)O` came in with a solubility of 0.698 mM (≈ 144 µg/mL).

The molecule `CCC1(c2ccccc2)NC(=O)NC1=O` (stereo not given) showed a solubility of 6.76 mM (≈ 1380 µg/mL).

The molecule `CCC1OC(=O)c2cc([N+](=O)[O-])ccc21` (stereo not given) yielded a solubility of 2.82 mM (≈ 584 µg/mL).

In turn, `O=C(O)c1cc(N=Nc2ccccc2)ccc1O` had a solubility of 0.879 mM (≈ 213 µg/mL).

`O=C(O)CC[Se][Se]CCC(=O)O` returned a solubility of 5.39 mM (≈ 1640 µg/mL).

With `CC(=O)N[C@@H](C(=O)O)C(C)C` (racemic), the solubility worked out at 354 mM (≈ 56400 µg/mL).

Molecule `Cc1cc(Cl)cc(Cl)c1O` registered a solubility of 9.04 mM (≈ 1600 µg/mL).

`O=C(O)COCC(=O)O` came in with a solubility of 3110 mM (≈ 417000 µg/mL).

In turn, `COc1cc(Br)c2c(c1OC)C(=O)OC2` came in with a solubility of 0.117 mM (≈ 32 µg/mL).

Take `CC(CC(C)C(=O)O)C(=O)O` (stereo not given): the solubility worked out at 350 mM (≈ 56000 µg/mL).

`O=C(O)c1ccc(F)c([N+](=O)[O-])c1` gave a solubility of 26.2 mM (≈ 4860 µg/mL).

On to `O=C(O)c1ccc2ccccc2n1`, for which the solubility was 81.1 mM (≈ 14000 µg/mL).

On to `CN1c2ccccc2C(O)(c2ccccc2)c2ccccc21`, for which the solubility was 0.125 mM (≈ 35.9 µg/mL).

Take `CCC(=O)OC(C)C(=O)OC` (stereo not given): the solubility was found to be 137 mM (≈ 22000 µg/mL).

`COC1CC1` showed a solubility of 763 mM (≈ 55000 µg/mL).

In the case of `CCC(=NO)C(CC)=NO`, the solubility was 2.8 mM (≈ 404 µg/mL).

In the case of `CCCCCCCCCOC(=O)c1cccnc1`, the solubility worked out at 0.802 mM (≈ 200 µg/mL).

As for `CC(=O)NCCNC(C)=O`, the solubility worked out at 4740 mM (≈ 683000 µg/mL).

Take `CCc1c[nH]c(=O)[nH]c1=O`: the solubility came to 11.4 mM (≈ 1600 µg/mL).

Molecule `Nc1cc(S(=O)(=O)O)ccc1C(=O)O` showed a solubility of 48.3 mM (≈ 10500 µg/mL).

In turn, `CCCCCCCCNC(=O)c1cccnc1` yielded a solubility of 0.982 mM (≈ 230 µg/mL).

On to `CC(C)[C@@H](O)C#N`, for which the solubility amounted to 2020 mM (≈ 200000 µg/mL).

Turning to `NC(=O)NCCC(=O)O`, the solubility is 158 mM (≈ 20900 µg/mL).

Staying with this data set, now noted: 26 °C.
The molecule `O=C(S)CCCCCCC(=O)S` yielded a solubility of 5.82 mM (≈ 1200 µg/mL).

`CSCCC(C(=O)O)N(CCC#N)CCC#N` (racemic) displayed a solubility of 47 mM (≈ 12000 µg/mL).

Molecule `N#CCCNC(CCC(=O)O)C(=O)O` (stereo not given) displayed a solubility of 49.9 mM (≈ 10000 µg/mL).

In turn, `O=C(S)CCCCC(=O)S` showed a solubility of 18.5 mM (≈ 3300 µg/mL).

Staying with this data set, now noted: 29 °C.
Molecule `Cc1cnc(NS(=O)(=O)c2ccc(N)cc2)nc1C` returned a solubility of 0.719 mM (≈ 200 µg/mL).

Still in this data set, the particulars now being: 30 °C.
Consider `CCCOc1ccc(NC(C)=O)cc1`, for which the solubility amounted to 0.88 mM (≈ 170 µg/mL).

As for `CCCCCOC(=O)c1ccc(O)cc1`, the solubility worked out at 0.154 mM (≈ 32 µg/mL).

In the case of `CCOC(=O)c1ccc(O)c(Cl)c1`, the solubility was found to be 0.598 mM (≈ 120 µg/mL).

`COC(=O)c1ccc(O)c(Cl)c1` registered a solubility of 1.34 mM (≈ 250 µg/mL).
